The values that follow are results of earlier work, collected in patent publication US8778869B2, “Tissue regeneration system” (Wisconsin Alumni Research Foundation, priority 2010, dated 2014).

On to fibroblast growth factor-2 [FGF-2], for which the “concentration of optimal in vitro biological activity” value was “approximately 1 nM”.

B1: bone morphogenetic protein-2 (protein, listed as Homo sapiens)
chain: MVAGTRCLLALLLPQVLLGGAAGLVPELGRRKFAAASSGRPSSQPSDEVLSEFELRLLSMFGLKQRPTPSRDAVVPPYMLDLYRRHSGQPGSPAPDHRLERAASRANTVRSFHHEESLEELPETSGKTTRRFFFNLSSIPTEEFITSAELQVFREQMQDALGNNSSFHHRINIYEIIKPATANSKFPVTRLLDTRLVNQNASRWESFDVTPAVMRWTAQGHANHGFVVEVAHLEEKQGVSKRHVRISRSLHQDEHSWSQIRPLLVTFGHDGKGHPLHKREKRQAKHKQRKRLKSSCKRHPLYVDFSDVGWNDWIVAPPGYHAFYCHGECPFPLADHLNSTNHAIVQTLVNSVNSKIPKACCVPTELSAISMLYLDENEKVVLKNYQDMVVEGCGCR
Turning to B1, the “concentration of optimal in vitro biological activity” value is “approximately 1 nM”.
